Entries after “also recorded” stand apart in the source; their conditions may differ.
Columns and labels:
[1] = test system: formalin-induced hind paw licking; experiment: Formalin-induced paw licking in mice; format: in vivo; conditions: intraperitoneally 30 minutes before formalin, Phase II (20 to 30 minute), FIG. 5
Protocol: Formalin Induced Hyperalgesia and Inflammation: In an experimental model of sustained inflammatory nociception associated with long term intracellular changes of nociceptive processing at the level of the spinal cord, mice or rats are subjected to a subplantar injection of formalin into a paw (Chapman et al., Brain Res. 697:258-261, 1995; Meller and Gebhart, Pain 52:127-136, 1993). Two distinct phases of spontaneous nociceptive behaviour exist: The first phase (Phase I) last about 5 minutes, followed by a second phase (Phase II), lasting approximately 40 minutes characterized by persistent shaking or licking of the injected paw (Fu et al., Neuroscience 101(4):1127-1135, 2000). Longer periods after injection of formalin results in the development of allodynia and hyperalgesia (1-4 weeks). […] Test compounds, including compound 12 and 7-NI, were dissolved in 1% DMSO/2% Tween 80/0.9% NaCl. Male or female ICR-derived mice weighing 23±2 g were housed in APEC® cages and maintained in a controlled temperature (22° C.-24° C.) and humidity (60%-80%) environment with 12 hr light-dark cycles for 1 week prior to use. Free access to standard lab chow and tap water was granted. […] The reduction of formalin-induced hind paw licking time was recorded during the following 20 to 30 minute period (Phase II).

CA1 hippocampal slices = experiment: Evoked field potentials in CA1 hippocampal slices after OGD; format: cell-based, rat; conditions: slices after 10 min OGD; compound 12 50 μM, 7-NI 100 μM; FIG. 16
Protocol: Slice Preparation: Male Wistar rats, 180-200 gm, were anesthetized with halothane and decapitated. Their brains were removed and placed in artificial cerebral spinal fluid (ACSF) at 0.5° C. within 60 s of decapitation. […] Brains were hemisected and hippocampi were dissected out and sectioned into […] thick slices using a McIlwain Tissue chopper (Mickle Laboratory Engineering Co. Gomshall, GB). Sectioning was initiated approximately 1 mm from the rostral end of the hippocampus and approximately 12 slices were harvested from each hippocampus. Slices were distributed into groups in a rotational manner so that each group contained slices from all sectioned regions of the hippocampus. The hippocampal slices were placed on nylon mesh platforms in interface-type incubation chambers (6-8 slices per platform; 1 platform per chamber) for 90 min at 35° C. The ACSF in these chambers, and the atmosphere above it, was continuously gassed with 95% O2/5% CO2. […]
(a) Preservation of Evoked Field Potentials: The efficacy of synaptic transmission in these slices was evaluated using electrophysiological techniques. […] Evoked potentials (EP) were recorded in the CA1 from the stratum pyrimidale using glass micropipettes (2-5 megohms) filled with 150 mM NaCl. Population spike (PS) amplitude was measured from the peak downward deflection to the midway point between the 2 positive peaks. […]

Hippocampal slices = experiment: Mitochondrial metabolic activity in hippocampal slices after OGD, TTC staining; format: cell-based, rat; conditions: 100 μM; 10 min OGD; control live normalized to 100%; n=5
Protocol: Brain injury can be measured in brain sections by incubating sections of fresh brain in 2,3,5-triphenyltetrazolium chloride (TTC). TTC, which is colorless, is reduced by mitochondrial succinate dehydrogenase in living tissue to a red formazan product. Combinations of photography or scanning and image analysis are then used to measure the area of normal (red) and damaged (uncolored) tissue at the surface of each section face and estimate the extent of damage. The TTC staining technique has been further refined by members of the Experimental Stroke Group at IBS (Study Host: University of Ottawa, Canada) using a solvent to extract the colored formazan product from tissue sections and measured it spectrophotometrically, thus obtaining a simple, objective measure of damage (Preston and Webster, J. Neurosci. Meth. 94(2):187-92, 1999). […]
(b) Preservation of Mitochondrial Metabolic Activity by compound 12 using TTC staining: Hippocampal slices exposed to 10 min OGD (control dead) retained 25±5% (n=5 groups of 4-5 slices) of the absorbance of slices not subjected to an insult (control live—normalized to 100%), whereas slices preincubated in 0.3 mM calcium 30 min prior to and during OGD retained 107±27% (n=5) of their absorbance (control protection). […]

Compound: O=[N+]([O-])c1cccc2cn[nH]c12 [Compound 7-NI, 7-nitroindazole]
- formalin-induced hind paw licking [1]: reduction in the frequency of paw licking
- preservation of population spike (CA1 hippocampal slices): did not preserve population spike; also recorded: fiber volleys, but no PSs
- absorbance retained (TTC staining) (Hippocampal slices): 81±18%

From patent US8586620B2, “Substituted indole compounds having NOS inhibitory activity” (NeurAxon, Inc., priority 2005, dated 2013)
